Laboratory results: publication PMC10337980 (PLOS Genetics, 2023)
Substitutions are numbered along the chain they refer to.

Key:
Type in all cases: cell-based
CsRDL [1] = target: T1, CsRDL (Chilo suppressalis, UniProt E2IKR3); experiment: two-electrode voltage clamp, inhibition of GABA-induced current in Xenopus oocytes
T1 construct: homomeric channel
T1 sequence (E2IKR3 27-496): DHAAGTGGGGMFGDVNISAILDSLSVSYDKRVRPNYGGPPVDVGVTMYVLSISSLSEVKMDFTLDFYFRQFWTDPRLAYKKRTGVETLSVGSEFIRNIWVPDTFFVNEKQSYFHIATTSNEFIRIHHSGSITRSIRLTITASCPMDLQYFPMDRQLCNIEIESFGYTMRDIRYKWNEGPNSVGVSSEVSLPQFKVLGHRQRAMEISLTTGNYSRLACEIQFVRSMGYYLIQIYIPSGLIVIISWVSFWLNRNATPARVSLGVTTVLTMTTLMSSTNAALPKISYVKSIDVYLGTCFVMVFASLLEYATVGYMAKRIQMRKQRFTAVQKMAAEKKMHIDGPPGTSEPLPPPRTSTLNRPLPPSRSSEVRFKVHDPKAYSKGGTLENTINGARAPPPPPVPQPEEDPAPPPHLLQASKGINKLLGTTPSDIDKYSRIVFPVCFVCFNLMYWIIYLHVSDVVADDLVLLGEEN

DmRDL [2] = target: T2, DmRDL (Drosophila melanogaster, UniProt P25123); experiment: as above
T2 construct: gene Rdl; homomeric
T2 sequence (P25123 45-606): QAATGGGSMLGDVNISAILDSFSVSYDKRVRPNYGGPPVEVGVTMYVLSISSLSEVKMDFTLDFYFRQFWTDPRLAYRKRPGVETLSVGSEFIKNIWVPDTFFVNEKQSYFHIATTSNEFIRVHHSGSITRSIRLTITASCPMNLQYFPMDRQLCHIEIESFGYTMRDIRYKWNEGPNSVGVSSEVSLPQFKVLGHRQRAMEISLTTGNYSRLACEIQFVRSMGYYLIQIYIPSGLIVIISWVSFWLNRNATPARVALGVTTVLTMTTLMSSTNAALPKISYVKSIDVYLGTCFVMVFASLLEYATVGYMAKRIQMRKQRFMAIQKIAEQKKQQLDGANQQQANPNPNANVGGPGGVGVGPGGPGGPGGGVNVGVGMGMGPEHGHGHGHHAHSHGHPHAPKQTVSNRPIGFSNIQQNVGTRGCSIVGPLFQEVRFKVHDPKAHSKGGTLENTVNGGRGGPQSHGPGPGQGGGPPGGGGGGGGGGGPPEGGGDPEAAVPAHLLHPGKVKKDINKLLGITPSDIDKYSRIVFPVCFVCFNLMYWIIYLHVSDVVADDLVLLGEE

DmRDL [3] = target: T3, DmRDL (Drosophila melanogaster, UniProt P25123, G335M); experiment: as above
T3 construct: gene Rdl; homomeric
T3 sequence (P25123 45-606 G335M): T2 sequence (P25123 45-606) with G291M

TuRDL [4] = target: T4, TuRDL (Tetranychus urticae, UniProt E3WEB3); experiment: as above
T4 construct: gene Rdl; homomeric
T4 sequence (E3WEB3 18-827): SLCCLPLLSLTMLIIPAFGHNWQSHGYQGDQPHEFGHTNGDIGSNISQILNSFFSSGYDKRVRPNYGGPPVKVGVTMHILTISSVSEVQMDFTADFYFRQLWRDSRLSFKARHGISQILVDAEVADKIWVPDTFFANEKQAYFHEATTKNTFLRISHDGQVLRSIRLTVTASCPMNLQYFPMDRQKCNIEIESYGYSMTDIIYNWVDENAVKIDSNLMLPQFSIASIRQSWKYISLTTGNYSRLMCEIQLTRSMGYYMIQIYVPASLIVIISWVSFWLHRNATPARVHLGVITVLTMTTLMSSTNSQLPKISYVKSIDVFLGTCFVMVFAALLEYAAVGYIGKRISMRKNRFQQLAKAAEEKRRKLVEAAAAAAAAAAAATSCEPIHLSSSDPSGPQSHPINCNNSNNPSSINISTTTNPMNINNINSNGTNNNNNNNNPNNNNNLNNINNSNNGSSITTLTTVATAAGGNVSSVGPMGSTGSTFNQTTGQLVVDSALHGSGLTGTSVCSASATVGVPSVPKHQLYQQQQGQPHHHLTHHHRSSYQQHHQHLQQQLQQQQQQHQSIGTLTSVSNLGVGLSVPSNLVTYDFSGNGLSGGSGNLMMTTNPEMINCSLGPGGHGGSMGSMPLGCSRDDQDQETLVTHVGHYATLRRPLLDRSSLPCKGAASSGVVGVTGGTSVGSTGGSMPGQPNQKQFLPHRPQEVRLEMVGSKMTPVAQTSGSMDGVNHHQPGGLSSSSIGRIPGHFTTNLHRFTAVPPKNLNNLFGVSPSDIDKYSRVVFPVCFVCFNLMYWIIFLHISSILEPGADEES

LsRDL [5] = target: T5, LsRDL (Laodelphax striatellus, UniProt Q0ECT5); experiment: as above
T5 construct: homomeric
T5 sequence (Q0ECT5 23-487): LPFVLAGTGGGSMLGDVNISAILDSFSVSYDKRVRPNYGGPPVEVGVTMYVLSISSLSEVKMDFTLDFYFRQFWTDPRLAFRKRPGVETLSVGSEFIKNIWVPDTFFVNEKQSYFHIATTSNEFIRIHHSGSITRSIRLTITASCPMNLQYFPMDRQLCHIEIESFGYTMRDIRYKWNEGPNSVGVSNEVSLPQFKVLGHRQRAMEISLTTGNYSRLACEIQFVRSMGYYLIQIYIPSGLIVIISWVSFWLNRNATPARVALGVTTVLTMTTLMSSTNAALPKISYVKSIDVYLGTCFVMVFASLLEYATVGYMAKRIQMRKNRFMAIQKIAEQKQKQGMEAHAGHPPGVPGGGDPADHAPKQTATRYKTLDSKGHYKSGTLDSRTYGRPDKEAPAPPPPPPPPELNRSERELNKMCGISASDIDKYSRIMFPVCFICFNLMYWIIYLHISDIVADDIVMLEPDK

AmRDL [6] = target: T6, AmRDL (Apis mellifera, UniProt A0A168SJP2); experiment: as above
T6 construct: homomeric
T6 sequence (A0A168SJP2 19-477): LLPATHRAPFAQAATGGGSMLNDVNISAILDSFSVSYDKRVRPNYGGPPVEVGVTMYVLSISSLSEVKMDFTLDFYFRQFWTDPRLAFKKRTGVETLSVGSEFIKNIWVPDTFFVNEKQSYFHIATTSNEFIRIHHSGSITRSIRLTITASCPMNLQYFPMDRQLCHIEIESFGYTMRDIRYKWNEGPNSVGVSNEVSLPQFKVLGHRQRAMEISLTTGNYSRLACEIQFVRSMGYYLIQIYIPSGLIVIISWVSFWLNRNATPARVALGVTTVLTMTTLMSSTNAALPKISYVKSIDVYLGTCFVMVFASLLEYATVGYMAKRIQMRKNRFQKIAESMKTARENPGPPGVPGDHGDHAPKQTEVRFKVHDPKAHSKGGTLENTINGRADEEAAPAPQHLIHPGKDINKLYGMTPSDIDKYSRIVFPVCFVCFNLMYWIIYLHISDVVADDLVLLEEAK

CsRDL [7] = target: T1, CsRDL; experiment: two-electrode voltage clamp, GABA-induced current in Xenopus oocytes
TuRDL [8] = target: T4, TuRDL; experiment: as above
AmRDL [9] = target: T6, AmRDL; experiment: as above
LsRDL [10] = target: T5, LsRDL; experiment: as above

SMILES	IC50 (CsRDL [1]) [nM]	IC50 (DmRDL [2]) [nM]	IC50 (DmRDL [3]) [nM]	IC50 (TuRDL [4]) [nM]	IC50 (LsRDL [5]) [nM]	IC50 (AmRDL [6]) [nM]	EC50 (CsRDL [7]) [nM]	EC50 (TuRDL [8]) [nM]	EC50 (AmRDL [9]) [nM]	EC50 (LsRDL [10]) [nM]
N#Cc1nn(-c2c(Cl)cc(C(F)(F)F)cc2Cl)c(N)c1[S+]([O-])C(F)(F)F (centres unmarked) [fipronil]	10									
Cc1cc(C2=NOC(c3cc(Cl)cc(Cl)c3)(C(F)(F)F)C2)ccc1C(=O)NCC(=O)NCC(F)(F)F (centres unmarked) [fluralaner]	4.2	6.96	> 10000	2.53	3.27	9.38				
NCCCC(=O)O [GABA]							18100	295000	13400	31900
